Broadly, the MIC is the least concentration at which growth counts as inhibited.

Structures are written as SMILES. Values after ≈ are worked out from the molar mass of the structure shown. Like-named read-outs stand apart in the source and are kept apart here.

Consider three compounds from patent US20090081721A1, “HIGH-THROUGHPUT CELL ASSAYS” (The Regents of the University of California, priority 2007, published 2009).

The subject of assay [1] is A. baumanii. The assay is described as follows: Isothermal titrative calorimetry (ITC) susceptibility test, power output and CFUs recovered. The settings on record: for Exponential increase in power (μW) after injection (ITC thermogram): 10^5 A. baumanii, 1 ml Mueller-Hinton broth, injection at 7,200 sec, 14,400 sec total; for Number of microbes (CFUs) in calorimetry chamber after incubation: 10^5 loaded, 4-hour monitoring; for Max dP/dt (100 save) after injection / Total μJ produced after injection: ciprofloxacin resistant, ampicillin resistant strain. In kind it is cell-based, Acinetobacter baumanii. As for the experimental part: (§1) In general, the susceptibility of bacterial strains can be tested by loading the chamber of an isothermal titrative calorimeter with a single bacterial strain, holding a constant temperature of 37° C. for a set time period (e.g., 14,400 seconds (4 hours)) and monitoring the power produced by the bacteria before and after application of an antimicrobial. Following the loading of the calorimeter, there is an initial energy spike within the first 1500 seconds (25 minutes) that is a normal equilibration period for a calorimeter. After the instrument and sample have equilibrated, the energy produced by a normally growing and dividing culture increases in an exponential manner, similar to a log phase growth curve of a microbial culture based on optical density (OD). Like the exponential increase in OD observed for a growing culture, the exponential increase in energy produced also seems to be associated with an increased number of cells in the medium because the number of cells retrieved from the calorimeter following a susceptibility test increases by about 2-3 orders of magnitude. (See Table 1).
(§2) In one aspect, the method is practiced by loading into a Isothermal Titrative Calorimetry (ITC) various drugs or antibiotics to which the cells such as microorganisms may be susceptible. The antibiotics can be loaded at different rates and at different growth densities. The difference in power produced by the sample co-cultured with the antibiotics are then measured and compared to the same untreated culture or culture treated with water. The data is differentiated to find the maximum growth rate (dP/dt), and integrated to determine the total microjoules produced by the culture after an antimicrobial was injected. If the organism is resistant to the antibiotic, the maximum growth rate is similar to that when the co-cultured with water. If the microorganism is sensitive to the antibiotic, maximum dP/dt and total microjoule (μJ) for the antimicrobial treated sample are much lower than the untreated sample or the sample treated with water. See FIGS. 6 through 9 for exemplary ITC-generated growth data.
(§3) The susceptibility of bacterial strains was tested by loading the chamber of an Isothermal Titrative Calorimeter (Calorimetry Sciences Corporation (CSC) and others are commercially available, see microcal.com/index, last accessed on Dec. 28, 2007) with a single bacterial strain, holding a constant temperature of 37° C. for 14,400 seconds (4 hours) and monitoring the power produced by the bacteria before and after application of an antimicrobial. Following the loading of the calorimeter, there is an initial energy spike within the first 1500 seconds (25 minutes) that is a normal equilibration period for a calorimeter. After the instrument and sample have equilibrated, the energy produced by a normally growing and dividing culture increases in an exponential manner, similar to a log phase growth curve of a microbial culture based on optical density (OD). Like the exponential increase in OD observed for a growing culture, the exponential increase in energy produced also seems to be associated with an increased number of cells in the medium because the number of cells retrieved from the calorimeter following a susceptibility test increases by 2-3 orders of magnitude. (See Table 1). A second spike in heat transfer being produced/absorbed in the calorimeter is associated with injection of either water or an antimicrobial into the injection chamber. This spike can be attributed to the enthalpy associated with dilution of the injected solution into the growth medium. […] If a strain is susceptible, a rise in power is not observed. If the strain is resistant to the agent or antimicrobial, the exponential rise in power is observed.
(§4) […]. H2O, ampicillin, or ciprofloxacin was injected into the chamber at 7,200 sec (2 hours). […]

The subject of assay [2] is P. mirabilis. The experiment in a line: Minimum inhibitory concentration (traditional susceptibility testing). In kind it is cell-based. The settings on record: Proteus mirabilis. The method, then:
(§5) Minimum inhibitory concentrations are determined by inoculating several cultures of bacteria in separate tubes or wells of broth that typically contain a 2-fold serial dilution of an antimicrobial.

Assay [3] deals with K. pneumoniae. Described as above. In kind it is cell-based. Conditions: Klebsiella pneumoniae. As for the experimental part: as §5
The next assay has as its system E. coli. The assay is described as follows: Isothermal titrative calorimetry (ITC) susceptibility test, power output and CFUs recovered. Conditions: for Exponential increase in energy after injection (ITC thermogram): 10^4 wild-type antibiotic susceptible E. coli, 1 ml Mueller-Hinton broth, injection at 7,200 sec, 14,400 sec total. In kind it is cell-based. As for the experimental part: as §1
as §2, with “See FIGS. 6 through 9 for exemplary ITC-generated growth data.” left out

Assay [4] deals with P. mirabilis. The assay is described as above. In kind it is cell-based, Proteus mirabilis. Conditions: for Exponential increase in power (μW) after injection (ITC thermogram): injection at 7,200 sec, 14,400 sec total; for Number of microbes (CFUs) in calorimetry chamber after incubation: 10^5 loaded, 4-hour monitoring; for Max dP/dt (100 save) after injection / Total μJ produced after injection: ciprofloxacin resistant, ampicillin resistant strain. As for the experimental part:
as §1, §2, §3
. H2O, ampicillin, or ciprofloxacin was injected into the chamber at 7,200 sec (2 hours). […]

The test system of assay [5] is K. pneumoniae. The assay is described as above. In kind it is cell-based, Klebsiella pneumoniae. Conditions: for Number of microbes (CFUs) in calorimetry chamber after incubation: 10^5 loaded, 4-hour monitoring; for Max dP/dt (100 save) after injection / Total μJ produced after injection: ciprofloxacin susceptible, ampicillin resistant strain. As for the experimental part:
as §1, §2, §3, §4

Assay [6] concerns A. baumanii. The assay is described as follows: Minimum inhibitory concentration (traditional susceptibility testing). In kind it is cell-based. The settings on record: Acinetobacter baumannii; wild-type ampicillin and ciprofloxacin resistant A. baumanii strain used in ITC. As for the experimental part: as §5
The mark [7] stands for this setting: 10^5 P. mirabilis, 1 ml Mueller-Hinton broth.

`CC1(C)S[C@@H]2[C@H](NC(=O)[C@H](N)c3ccccc3)C(=O)N2[C@H]1C(=O)O` [Ampicillin, ampicillin]: the “Exponential increase in power (μW) after injection (ITC thermogram)” value was “exponential increase in power continued in all three samples” in the assay with A. baumanii [1]; “exponential increase in power continued in all three samples” with P. mirabilis [4] (setting [7]); “exponential increase in power continued in the sample injected with H2O and ampicillin” in the assay on K. pneumoniae [5] (10^5 K. pneumoniae, 1 ml Mueller-Hinton broth, injection at 7,200 sec, 14,400 sec total). The “Number of microbes (CFUs) in calorimetry chamber after incubation” value is given as 3.0 × 10^7 CFUs in the assay with A. baumanii [1] (Ampicillin 40 μg/ml), 9.0 × 10^5 CFUs with P. mirabilis [4] (Ampicillin 40 μg/ml) and 2.0 × 10^7 CFUs in the assay on K. pneumoniae [5] (Ampicillin 40 μg/ml). Further, the “Max dP/dt (100 save) after injection” value amounted to 0.026 in the assay with A. baumanii [1] (Ampicillin 40 μg/ml), 0.027 in the assay with P. mirabilis [4] (Ampicillin 40 μg/ml) and 0.029 in the assay on K. pneumoniae [5] (Ampicillin 40 μg/ml). Besides, the “Total μJ produced after injection” value with A. baumanii [1] (Ampicillin 40 μg/ml) is listed as 91,240 μJ; in the assay with P. mirabilis [4] (Ampicillin 40 μg/ml) it was 161,844 μJ; in the assay with K. pneumoniae [5] (Ampicillin 40 μg/ml), 139,108 μJ. In addition, the MIC with P. mirabilis [2] and in the assay on K. pneumoniae [3] was over 1020 µg/mL throughout. For the same compound, the “Exponential increase in energy after injection (ITC thermogram)” value in the assay on E. coli is on record as “exponential increase in energy only continued in the sample injected with H2O”.
In the case of `O=C(O)c1cn(C2CC2)c2cc(N3CCNCC3)c(F)cc2c1=O` [Ciprofloxacin, ciprofloxacin], the “Exponential increase in power (μW) after injection (ITC thermogram)” value in the assay on A. baumanii [1] and with P. mirabilis [4] (setting [7]) was “exponential increase in power continued in all three samples” throughout. Further, the “Number of microbes (CFUs) in calorimetry chamber after incubation” value in the assay on A. baumanii [1] (Ciprofloxacin 2 μg/ml) is on record as 2.1 × 10^7 CFUs; in the assay on E. coli (Ciprofloxacin 2 μg/ml, 10^4 loaded, 4-hour monitoring), 1.7 × 10^7 CFUs; with P. mirabilis [4] (Ciprofloxacin 2 μg/ml) it was 4.1 × 10^6 CFUs; with K. pneumoniae [5] (Ciprofloxacin 2 μg/ml) it was 3.6 × 10^7 CFUs. Besides, the “Max dP/dt (100 save) after injection” value in the assay on A. baumanii [1] (Ciprofloxacin 2 μg/ml) was found to be 0.027; in the assay with P. mirabilis [4] (Ciprofloxacin 2 μg/ml), 0.012; in the assay with K. pneumoniae [5] (Ciprofloxacin 2 μg/ml), 0.003. In addition, the results for the “Total μJ produced after injection” value with A. baumanii [1] (Ciprofloxacin 2 μg/ml), in the assay on P. mirabilis [4] (Ciprofloxacin 2 μg/ml) and in the assay on K. pneumoniae [5] (Ciprofloxacin 2 μg/ml) were 100,846 μJ, 79,439 μJ and 24,676 μJ, respectively. Besides, the minimal inhibitory concentration (MIC) is 4 µg/mL (≈ 12.1 µM) in the assay with P. mirabilis [2] (ampicillin resistant, weakly ciprofloxacin resistant P. mirabilis strain used in ITC, read-out: MIC) and over 32 µg/mL against A. baumanii [6]. Further, in the assay with E. coli, the “Exponential increase in energy after injection (ITC thermogram)” value is given as “exponential increase in energy only continued in the sample injected with H2O”. Further, the “Rate of exponential increase in power after injection, compared with ampicillin or H2O” value in the assay on P. mirabilis [4] (10^5 P. mirabilis, 1 ml Mueller-Hinton broth, injection at 7,200 sec) is recorded as “lower than for ampicillin or H2O”.
`CC(C)(O/N=C(\C(=O)N[C@@H]1C(=O)N2C(C(=O)[O-])=C(C[n+]3ccccc3)CS[C@H]12)c1csc(N)n1)C(=O)O` [ceftazidime] gave an MIC with P. mirabilis [2] of 128 µg/mL (≈ 234 µM).
